The source of these data is patent US7741346B2, “Angiogenesis inhibitor” (Santen Pharmaceutical Co., Ltd., priority 2001, dated 2010).

With `CCCCCN(CCC12CC3CC(CC(C3)C1)C2)C(=O)NCCc1ccc(O)cc1`, the melting point was 96.3 to 99.4 °C.

For `CCCN(CCCC12CC3CC(CC(C3)C1)C2)C(=O)NCCCc1ccncc1.O=P(O)(O)O`, the melting point lay within 148 to 149 °C. Turning to `Cl.O=C(NCc1ccncc1)N(CCC1CCCCC1)Cc1cccs1`, the melting point was in the range of 161.8 to 164.4 °C. With `Cl.O=C(NCCCc1ccncc1)N(CCC12CC3CC(CC(C3)C1)C2)CCC12CC3CC(CC(C3)C1)C2`, the melting point fell in the range of 120 to 122.5 °C.

The molecule `CCCCCN(CCC12CC3CC(CC(C3)C1)C2)C(=O)CNCCc1ccncc1.Cl.Cl` yielded a melting point of 133.7 to 137 °C. The value for `CC(C)CCN(CCC(C)C)C(=O)NCCCc1ccncc1.Cl` was 120.5 to 131.7 °C; that for `Cl.Cl.NN(CCC12CC3CC(CC(C3)C1)C2)C(=O)NCCCc1ccncc1` was ~ 100 °C. As for `CC(C)(C)OC(=O)NCCN(CCC12CC3CC(CC(C3)C1)C2)C(=O)NCCCc1cc[n+](Cc2ccccc2)cc1.[Br-]`, the figure is 97 °C; as for `Cl.O=C1CCN(CCC23CC4CC(CC(C4)C2)C3)C(=O)N1CCCc1ccncc1`, 177 to 178.5 °C.

`Cl.O=C1CCN(CCC2CCCCC2)C(=O)N1Cc1ccncc1` gave a melting point of 64 to 74.5 °C. Regarding `Cl.O=C1CCN(CCCc2ccncc2)C(=O)N1CCC12CC3CC(CC(C3)C1)C2`, the melting point came out at 170 °C.

`CCCCCN(CCC12CC3CC(CC(C3)C1)C2)C(=O)NC[C@@H]1C[C@@H]1c1ccncc1` (relative stereo) [Compound No. 15-1, cis-1-[2-(1-adamantyl)ethyl]-1-pentyl-3-[2-(4-pyridyl)cyclopropylmethyl]urea] returned a melting point of 128 to 130 °C. Molecule `O=C(NCCCc1ccncc1)N1CCc2ccccc2C1` [Compound No. 1-5, N-[3-(4-Pyridyl)propyl]-1,2,3,4-tetrahydroisoquinoline-2-carboxamide] gave a melting point of 76 to 79 °C. Turning to `O=C(NCCCc1ccncc1)N1CCOCC1` [Compound No. 1-6, N-[3-(4-Pyridyl)propyl]-4-morpholinecarboxamide], the melting point fell in the range of 94 to 98 °C. The value for `CN(C)CCN(CCC12CC3CC(CC(C3)C1)C2)C(=O)NCCCc1ccncc1` [Compound No. 1-15, 1-[2-(1-Adamantyl)ethyl]-1-[2-(dimethylamino)ethyl]-3-[3-(4-pyridyl)propyl]urea] was 104 to 106.5 °C. As for `CCCN(CCC12CC3CC(CC(C3)C1)C2)C(=O)NCCCc1ccncc1` [Compound No. 1-16, 1-[2-(1-Adamantyl)ethyl]-1-propyl-3-[3-(4-pyridyl)propyl]urea], the figure is 99 to 103 °C; as for `COCCN(CCC12CC3CC(CC(C3)C1)C2)C(=O)NCCCc1ccncc1` [Compound No. 1-18, 1-[2-(1-Adamantyl)ethyl]-1-(2-methoxyethyl)-3-[3-(4-pyridyl)propyl]urea], 101.5 to 104.5 °C; as for `O=C(NCCCc1ccncc1)N(CCC12CC3CC(CC(C3)C1)C2)CC1CCCC1` [Compound No. 1-21, 1-[2-(1-Adamantyl)ethyl]-1-cyclopentylmethyl-3-[3-(4-pyridyl)propyl]urea], 155 to 158 °C. The value for `O=C(NCCCc1ccncc1)N(CCC12CC3CC(CC(C3)C1)C2)CC1CC1` [Compound No. 1-22, 1-[2-(1-Adamantyl)ethyl]-1-cyclopropylmethyl-3-[3-(4-pyridyl)propyl]urea] was 123 to 125 °C.

On to `C=CCN(CCC12CC3CC(CC(C3)C1)C2)C(=O)NCCCc1ccncc1` [Compound No. 1-23, 1-[2-(1-Adamantyl)ethyl]-1-allyl-3-[3-(4-pyridyl)propyl]urea], for which the melting point is 99 to 102 °C. As for `O=C(NCCCc1ccncc1)N(CCC12CC3CC(CC(C3)C1)C2)Cc1cccs1` [Compound No. 1-27, 1-[2-(1-Adamantyl)ethyl]-3-[3-(4-pyridyl)propyl]-1-(2-thienyl)methylurea], the figure is 142.5 to 144.5 °C; as for `CCCCCCN(CCC12CC3CC(CC(C3)C1)C2)C(=O)NCCCc1ccncc1` [Compound No. 1-29, 1-[2-(1-Adamantyl)ethyl]-1-hexyl-3-[3-(4-pyridyl)propyl]urea], 119.5 to 121.5 °C; as for `CC(C)=CCN(CCC12CC3CC(CC(C3)C1)C2)C(=O)NCCCc1ccncc1` [Compound No. 1-31, 1-[2-(1-Adamantyl)ethyl]-1-(3-methyl-2-butenyl)-3-[3-(4-pyridyl)propyl]urea], 93 to 96 °C. Turning to `CCCCCCCCCCN(CCC12CC3CC(CC(C3)C1)C2)C(=O)NCCCc1ccncc1` [Compound No. 1-32, 1-[2-(1-Adamantyl)ethyl]-1-decyl-3-[3-(4-pyridyl)propyl]urea], the melting point lay within 75 to 76 °C. As for `C=C(C)CN(CCC12CC3CC(CC(C3)C1)C2)C(=O)NCCCc1ccncc1` [Compound No. 1-33, 1-[2-(1-Adamantyl)ethyl]-1-(2-methyl-2-propenyl)-3-[3-(4-pyridyl)propyl]urea], the figure is 108 to 109 °C. The value for `O=C(NCCCc1ccncc1)N(CC=Cc1ccccc1)CCC12CC3CC(CC(C3)C1)C2` [Compound No. 1-34, 1-[2-(1-Adamantyl)ethyl]-1-cinnamyl-3-[3-(4-pyridyl)propyl]urea] was 130 to 134.5 °C; that for `CN(CCC12CC3CC(CC(C3)C1)C2)C(=O)NCCCc1ccncc1` [Compound No. 1-40, 1-[2-(1-Adamantyl)ethyl]-1-methyl-3-[3-(4-pyridyl)propyl)urea] was 99 to 109 °C. The value for `CCN(CCC12CC3CC(CC(C3)C1)C2)C(=O)NCCCc1ccncc1` [Compound No. 1-41, 1-[2-(1-Adamantyl)ethyl]-1-ethyl-3-[3-(4-pyridyl)propyl]urea] was 106 to 115 °C; that for `O=C(NCCCc1ccncc1)N(CCC12CC3CC(CC(C3)C1)C2)Cc1ccco1` [Compound No. 1-42, 1-[2-(1-Adamantyl)ethyl]-1-furfuryl-3-[3-(4-pyridyl)propyl]urea] was 128 to 130 °C; that for `O=C(NCCCc1ccncc1)N(CCC12CC3CC(CC(C3)C1)C2)Cc1ccccc1` [Compound No. 1-43, 1-[2-(1-Adamantyl)ethyl]-1-benzyl-3-[3-(4-pyridyl)propyl]urea] was 130.5 to 135 °C. Molecule `CCCCCN(CCC1CCCCC1)C(=O)NCc1ccncc1` [Compound No. 1-52, 1-(2-Cyclohexylethyl)-1-pentyl-3-(4-pyridyl)methylurea] had a melting point of 64.7 to 65.8 °C.

With `O=C(NCCCc1ccncc1)N(CCC12CC3CC(CC(C3)C1)C2)CCC12CC3CC(CC(C3)C1)C2` [Compound No. 1-56, 1,1-Bis[2-(1-adamantyl)ethyl]-3-[3-(4-pyridyl)propyl]urea], the melting point is 80 °C. Molecule `CCCCN(CCC12CC3CC(CC(C3)C1)C2)C(=O)NCCCc1ccncc1` [Compound No. 1-57, 1-[2-(1-Adamantyl)ethyl]-1-butyl-3-[3-(4-pyridyl)propyl]urea] had a melting point of 109.5 to 118 °C. In turn, `O=C(N(CCCc1ccncc1)Cc1ccccc1)N(CCCc1ccccc1)C1CCCCC1` [Compound No. 1-60, 1-Cyclohexyl(phenyl)methyl-1-(3-phenylpropyl)-3-[3-(4-pyridyl)propyl]urea] yielded a melting point of 107 to 112 °C.
